From patent US12708665B2, “Anti-IL-1β antibody therapy in arrhythmogenic cardiomyopathy (ACM)” (Beth Israel Deaconess Medical Center, Inc., priority 2019, dated 2026)
“Also recorded” adds a separate entry of the source.

Test system: Dsg2^mut/mut mice
Experiment: Cytokine arrays, cytokine expression in hearts of Dsg2^mut/mut mice treated with Bay 11-7082
Format: in vivo
From the text: Quantitative data (mean±SEM; n=5) for expression of selected cytokines in hearts of vehicle-treated wildtype (WT) mice, Dsg2^mut/mut mice and Dsg2^mut/mut mice treated with Bay 11-7082. * P<0.05 compared to WT; †P<0.05 for treated vs. untreated Dsg2^mut/mut mice.
To characterize production of chemical mediators of the immune response in ACM, we used arrays to measure 111 different cytokines in the hearts of Dsg2^mut/mut mice and compared the amounts to those measured in the hearts of WT mice and Dsg2^mut/mut mice treated with Bay 11-7082. We observed substantial expression of multiple cytokines in the hearts of Dsg2^mut/mut mice. […] Powerful inflammatory mediators were expressed in Dsg2^mut/mut hearts including IL-1β (up by ~13-fold compared to WT hearts), IFNγ (~5-fold), IL-12 (~6-fold) and TNFα (~2-fold). […] Finally, there were increases in some molecules that fulfill anti-inflammatory roles such as IL-1Ra (up by ~4-fold).

[1] = cytokine expression level, mouse heart

Cc1ccc(S(=O)(=O)/C=C/C#N)cc1 [Bay11-7082]
IL-1β (IL-1F2), Dsg2^mut/mut (Bay11-7082) vs Dsg2^mut/mut [1]: <1 | IL-1β (IL-1F2), Dsg2^mut/mut (Bay11-7082) vs WT [1]: 6-10 | IL-2, Dsg2^mut/mut (Bay11-7082) vs Dsg2^mut/mut [1]: <1 | IL-2, Dsg2^mut/mut (Bay11-7082) vs WT [1]: <1 | IL-3, Dsg2^mut/mut (Bay11-7082) vs Dsg2^mut/mut [1]: <1 | IL-3, Dsg2^mut/mut (Bay11-7082) vs WT [1]: <1 | IL-4, Dsg2^mut/mut (Bay11-7082) vs Dsg2^mut/mut [1]: <1 | IL-4, Dsg2^mut/mut (Bay11-7082) vs WT [1]: <1 | IL-5, Dsg2^mut/mut (Bay11-7082) vs Dsg2^mut/mut [1]: <1 | IL-5, Dsg2^mut/mut (Bay11-7082) vs WT [1]: <1 | IL-6, Dsg2^mut/mut (Bay11-7082) vs Dsg2^mut/mut [1]: <1 | IL-6, Dsg2^mut/mut (Bay11-7082) vs WT [1]: <1 | IL-7, Dsg2^mut/mut (Bay11-7082) vs Dsg2^mut/mut [1]: <1 | IL-7, Dsg2^mut/mut (Bay11-7082) vs WT [1]: <1 | IL-10, Dsg2^mut/mut (Bay11-7082) vs Dsg2^mut/mut [1]: <1 | IL-10, Dsg2^mut/mut (Bay11-7082) vs WT [1]: <1 | IL-11, Dsg2^mut/mut (Bay11-7082) vs Dsg2^mut/mut [1]: <1 | IL-11, Dsg2^mut/mut (Bay11-7082) vs WT [1]: <1 | IL-12 p40, Dsg2^mut/mut (Bay11-7082) vs Dsg2^mut/mut [1]: <1 | IL-12 p40, Dsg2^mut/mut (Bay11-7082) vs WT [1]: 1-2 | IL-13, Dsg2^mut/mut (Bay11-7082) vs Dsg2^mut/mut [1]: <1 | IL-13, Dsg2^mut/mut (Bay11-7082) vs WT [1]: 1-2 | IL-15, Dsg2^mut/mut (Bay11-7082) vs Dsg2^mut/mut [1]: <1 | IL-15, Dsg2^mut/mut (Bay11-7082) vs WT [1]: 2-4 | IL-17a, Dsg2^mut/mut (Bay11-7082) vs Dsg2^mut/mut [1]: <1 | IL-17a, Dsg2^mut/mut (Bay11-7082) vs WT [1]: <1 | IL-22, Dsg2^mut/mut (Bay11-7082) vs Dsg2^mut/mut [1]: <1 | IL-22, Dsg2^mut/mut (Bay11-7082) vs WT [1]: <1 | IL-23, Dsg2^mut/mut (Bay11-7082) vs Dsg2^mut/mut [1]: <1 | IL-23, Dsg2^mut/mut (Bay11-7082) vs WT [1]: <1 | IL-27 p28, Dsg2^mut/mut (Bay11-7082) vs Dsg2^mut/mut [1]: <1 | IL-27 p28, Dsg2^mut/mut (Bay11-7082) vs WT [1]: <1 | IL-28A/B, Dsg2^mut/mut (Bay11-7082) vs Dsg2^mut/mut [1]: <1 | IL-28A/B, Dsg2^mut/mut (Bay11-7082) vs WT [1]: 1-2 | IL-33, Dsg2^mut/mut (Bay11-7082) vs Dsg2^mut/mut [1]: <1 | IL-33, Dsg2^mut/mut (Bay11-7082) vs WT [1]: 2-4 | IP-10 (CXL10/CRG-2), Dsg2^mut/mut (Bay11-7082) vs Dsg2^mut/mut [1]: <1 | IP-10 (CXL10/CRG-2), Dsg2^mut/mut (Bay11-7082) vs WT [1]: <1 | KC (CXCL1), Dsg2^mut/mut (Bay11-7082) vs Dsg2^mut/mut [1]: <1 | KC (CXCL1), Dsg2^mut/mut (Bay11-7082) vs WT [1]: <1 | LDL R, Dsg2^mut/mut (Bay11-7082) vs Dsg2^mut/mut [1]: 1-2 | LDL R, Dsg2^mut/mut (Bay11-7082) vs WT [1]: 1-2 | LIF, Dsg2^mut/mut (Bay11-7082) vs Dsg2^mut/mut [1]: <1 | LIF, Dsg2^mut/mut (Bay11-7082) vs WT [1]: <1 | LIX, Dsg2^mut/mut (Bay11-7082) vs Dsg2^mut/mut [1]: <1 | LIX, Dsg2^mut/mut (Bay11-7082) vs WT [1]: >10 | Leptin, Dsg2^mut/mut (Bay11-7082) vs Dsg2^mut/mut [1]: <1 | Leptin, Dsg2^mut/mut (Bay11-7082) vs WT [1]: 1-2 | Lipocalin-2/NGAL, Dsg2^mut/mut (Bay11-7082) vs Dsg2^mut/mut [1]: <1 | Lipocalin-2/NGAL, Dsg2^mut/mut (Bay11-7082) vs WT [1]: <1 | M-CSF, Dsg2^mut/mut (Bay11-7082) vs Dsg2^mut/mut [1]: 1-2 | M-CSF, Dsg2^mut/mut (Bay11-7082) vs WT [1]: >20 | MCP-5 (CCL12), Dsg2^mut/mut (Bay11-7082) vs Dsg2^mut/mut [1]: <1 | MCP-5 (CCL12), Dsg2^mut/mut (Bay11-7082) vs WT [1]: <1 | MIP-2 (CXCL2), Dsg2^mut/mut (Bay11-7082) vs Dsg2^mut/mut [1]: <1 | MIP-2 (CXCL2), Dsg2^mut/mut (Bay11-7082) vs WT [1]: <1 | MMP-2, Dsg2^mut/mut (Bay11-7082) vs Dsg2^mut/mut [1]: 1-2 | MMP-2, Dsg2^mut/mut (Bay11-7082) vs WT [1]: 4-6 | MMP-3, Dsg2^mut/mut (Bay11-7082) vs Dsg2^mut/mut [1]: 1-2 | MMP-3, Dsg2^mut/mut (Bay11-7082) vs WT [1]: <1 | MMP-9, Dsg2^mut/mut (Bay11-7082) vs Dsg2^mut/mut [1]: <1 | MMP-9, Dsg2^mut/mut (Bay11-7082) vs WT [1]: <1 | Myeloperoxidase, Dsg2^mut/mut (Bay11-7082) vs Dsg2^mut/mut [1]: <1 | Myeloperoxidase, Dsg2^mut/mut (Bay11-7082) vs WT [1]: 2-4 | Osteopontin (OPN), Dsg2^mut/mut (Bay11-7082) vs Dsg2^mut/mut [1]: <1 | Osteopontin (OPN), Dsg2^mut/mut (Bay11-7082) vs WT [1]: 4-6 | Osteoprotegerin/TNFRSF11B, Dsg2^mut/mut (Bay11-7082) vs Dsg2^mut/mut [1]: <1 | Osteoprotegerin/TNFRSF11B, Dsg2^mut/mut (Bay11-7082) vs WT [1]: <1 | P-Selectin/CD62P, Dsg2^mut/mut (Bay11-7082) vs Dsg2^mut/mut [1]: <1 | P-Selectin/CD62P, Dsg2^mut/mut (Bay11-7082) vs WT [1]: >10 | PD-EGF/Thymidine phosphorylase, Dsg2^mut/mut (Bay11-7082) vs Dsg2^mut/mut [1]: <1 | PD-EGF/Thymidine phosphorylase, Dsg2^mut/mut (Bay11-7082) vs WT [1]: <1 | PDGF-BB, Dsg2^mut/mut (Bay11-7082) vs Dsg2^mut/mut [1]: <1 | PDGF-BB, Dsg2^mut/mut (Bay11-7082) vs WT [1]: 1-2 | Pentraxin 2/SAP, Dsg2^mut/mut (Bay11-7082) vs Dsg2^mut/mut [1]: <1 | Pentraxin 2/SAP, Dsg2^mut/mut (Bay11-7082) vs WT [1]: 1-2 | Pentraxin 3/TSG-14, Dsg2^mut/mut (Bay11-7082) vs Dsg2^mut/mut [1]: <1 | Pentraxin 3/TSG-14, Dsg2^mut/mut (Bay11-7082) vs WT [1]: <1 | Periostin/OSF-2, Dsg2^mut/mut (Bay11-7082) vs Dsg2^mut/mut [1]: <1 | Periostin/OSF-2, Dsg2^mut/mut (Bay11-7082) vs WT [1]: <1 | Pref-1/DLK-1/FA1, Dsg2^mut/mut (Bay11-7082) vs Dsg2^mut/mut [1]: <1 | Pref-1/DLK-1/FA1, Dsg2^mut/mut (Bay11-7082) vs WT [1]: 6-10 | Proliferin, Dsg2^mut/mut (Bay11-7082) vs Dsg2^mut/mut [1]: <1 | Proliferin, Dsg2^mut/mut (Bay11-7082) vs WT [1]: 6-10 | Proprotein Convertase 9/PCSK9, Dsg2^mut/mut (Bay11-7082) vs Dsg2^mut/mut [1]: 1-2 | Proprotein Convertase 9/PCSK9, Dsg2^mut/mut (Bay11-7082) vs WT [1]: <1 | RAGE, Dsg2^mut/mut (Bay11-7082) vs Dsg2^mut/mut [1]: <1 | RAGE, Dsg2^mut/mut (Bay11-7082) vs WT [1]: <1 | RBP4, Dsg2^mut/mut (Bay11-7082) vs Dsg2^mut/mut [1]: <1 | RBP4, Dsg2^mut/mut (Bay11-7082) vs WT [1]: 1-2 | Reg3G, Dsg2^mut/mut (Bay11-7082) vs Dsg2^mut/mut [1]: <1 | Reg3G, Dsg2^mut/mut (Bay11-7082) vs WT [1]: 6-10 | Resistin, Dsg2^mut/mut (Bay11-7082) vs Dsg2^mut/mut [1]: <1 | Resistin, Dsg2^mut/mut (Bay11-7082) vs WT [1]: 2-4 | Serpin E1/PAI-1, Dsg2^mut/mut (Bay11-7082) vs Dsg2^mut/mut [1]: <1 | Serpin E1/PAI-1, Dsg2^mut/mut (Bay11-7082) vs WT [1]: 6-10 | Serpin F1/PEDF, Dsg2^mut/mut (Bay11-7082) vs Dsg2^mut/mut [1]: <1 | Serpin F1/PEDF, Dsg2^mut/mut (Bay11-7082) vs WT [1]: <1 | TIM-1/KIM-1/HAVCR, Dsg2^mut/mut (Bay11-7082) vs Dsg2^mut/mut [1]: 1-2 | TIM-1/KIM-1/HAVCR, Dsg2^mut/mut (Bay11-7082) vs WT [1]: <1 | TNF-α, Dsg2^mut/mut (Bay11-7082) vs Dsg2^mut/mut [1]: <1 | TNF-α, Dsg2^mut/mut (Bay11-7082) vs WT [1]: 1-2 | Thrombopoeitin, Dsg2^mut/mut (Bay11-7082) vs Dsg2^mut/mut [1]: 1-2 | Thrombopoeitin, Dsg2^mut/mut (Bay11-7082) vs WT [1]: <1 | VCAM-1/CD106, Dsg2^mut/mut (Bay11-7082) vs Dsg2^mut/mut [1]: 1-2 | VCAM-1/CD106, Dsg2^mut/mut (Bay11-7082) vs WT [1]: 6-10 | VEGF, Dsg2^mut/mut (Bay11-7082) vs Dsg2^mut/mut [1]: 1-2 | VEGF, Dsg2^mut/mut (Bay11-7082) vs WT [1]: <1 | WISP-1/CCN4, Dsg2^mut/mut (Bay11-7082) vs Dsg2^mut/mut [1]: <1 | WISP-1/CCN4, Dsg2^mut/mut (Bay11-7082) vs WT [1]: <1 | sICAM-1 (CD54), Dsg2^mut/mut (Bay11-7082) vs Dsg2^mut/mut [1]: <1 | sICAM-1 (CD54), Dsg2^mut/mut (Bay11-7082) vs WT [1]: 1-2 | increased expression of cytokines in Dsg2^mut/mut hearts (treated vs untreated Dsg2^mut/mut mice, FIG. 1, result in words): attenuation; also recorded: blunted or fully normalized
